In ChEMBL document CHEMBL4376804, “Review of Transient Receptor Potential Canonical (TRPC5) Channel Modulators and Diseases” (J Med Chem, 2019):

Experiments:
[1] = molecular target: T1, Short transient receptor potential channel 6 (Mus musculus, UniProt Q61143); assay: Inhibition of HA-tagged mouse TRPC6 expressed in HEK293 cells assessed as reduction in acetylcholine-induced membrane potential by FLIPR membrane potential dye based assay; format: cell-based
T1 sequence (Q61143 whole entry): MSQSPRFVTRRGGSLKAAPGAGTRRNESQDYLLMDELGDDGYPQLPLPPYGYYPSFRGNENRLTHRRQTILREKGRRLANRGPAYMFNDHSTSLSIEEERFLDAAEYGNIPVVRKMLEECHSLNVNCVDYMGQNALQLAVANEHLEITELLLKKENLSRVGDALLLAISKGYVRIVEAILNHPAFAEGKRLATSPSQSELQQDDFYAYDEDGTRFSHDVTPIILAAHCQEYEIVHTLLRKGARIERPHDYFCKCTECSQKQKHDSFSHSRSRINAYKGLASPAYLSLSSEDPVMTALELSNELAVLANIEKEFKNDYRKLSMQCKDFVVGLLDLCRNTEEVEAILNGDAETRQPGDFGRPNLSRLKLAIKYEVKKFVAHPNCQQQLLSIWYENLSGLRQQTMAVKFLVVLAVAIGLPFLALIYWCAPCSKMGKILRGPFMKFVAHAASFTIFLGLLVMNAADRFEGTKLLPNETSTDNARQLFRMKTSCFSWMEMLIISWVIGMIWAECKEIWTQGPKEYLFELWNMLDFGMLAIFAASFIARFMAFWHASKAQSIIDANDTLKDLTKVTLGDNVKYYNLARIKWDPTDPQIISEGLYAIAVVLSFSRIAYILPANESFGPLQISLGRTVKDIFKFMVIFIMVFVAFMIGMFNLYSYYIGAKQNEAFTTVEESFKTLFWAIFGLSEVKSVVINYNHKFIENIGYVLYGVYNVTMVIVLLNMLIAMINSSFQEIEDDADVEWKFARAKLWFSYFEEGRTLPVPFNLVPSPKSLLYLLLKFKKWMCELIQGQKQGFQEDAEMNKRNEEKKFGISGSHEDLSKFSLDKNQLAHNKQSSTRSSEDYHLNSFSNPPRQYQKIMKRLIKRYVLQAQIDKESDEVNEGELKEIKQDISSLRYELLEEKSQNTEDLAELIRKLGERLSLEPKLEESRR

[2] = organism: Mus musculus; assay: Selectivity ratio of mouse TRPC4 beta expressed in HEK293 cells co-expressing mu-opioid receptor to IC50 for mouse TRPC6 expressed in HEK293 cells; format: cell-based
[3] = molecular target: Acetylcholinesterase (Homo sapiens, UniProt P22303); assay: Inhibition of human recombinant acetylcholinesterase expressed in HEK-293 cells using AMTch as substrate after 30 mins by spectrophotometric method
Acetylcholinesterase, sequence (P22303 whole entry): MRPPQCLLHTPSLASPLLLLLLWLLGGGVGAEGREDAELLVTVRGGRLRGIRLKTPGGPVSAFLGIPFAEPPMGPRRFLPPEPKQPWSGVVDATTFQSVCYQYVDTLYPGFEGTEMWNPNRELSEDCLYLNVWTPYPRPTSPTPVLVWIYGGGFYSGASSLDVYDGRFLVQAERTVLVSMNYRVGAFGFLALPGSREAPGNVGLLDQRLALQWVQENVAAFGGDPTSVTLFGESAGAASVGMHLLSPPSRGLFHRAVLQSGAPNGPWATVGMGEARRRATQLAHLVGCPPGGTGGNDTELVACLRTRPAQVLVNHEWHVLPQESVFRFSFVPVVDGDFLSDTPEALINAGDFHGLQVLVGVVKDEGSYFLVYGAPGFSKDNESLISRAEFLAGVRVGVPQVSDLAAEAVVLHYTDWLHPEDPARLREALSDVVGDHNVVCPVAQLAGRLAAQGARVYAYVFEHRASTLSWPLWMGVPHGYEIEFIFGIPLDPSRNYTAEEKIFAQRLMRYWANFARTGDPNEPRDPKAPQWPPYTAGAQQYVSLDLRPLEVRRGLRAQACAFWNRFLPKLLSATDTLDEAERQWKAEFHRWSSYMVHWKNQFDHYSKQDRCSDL

[4] = molecular target: T2, Short transient receptor potential channel 4 (Mus musculus, UniProt Q9QUQ5); assay: Inhibition of mouse TRPC4 beta expressed in HEK293 cells co-expressing mu-opioid receptor assessed as reduction in DAMGO-induced intracellular calcium level in presence of mu-opioid receptor agonist DAMGO by Fluo-4AM dye based fluorescence assay; format: cell-based
T2 sequence (Q9QUQ5 whole entry): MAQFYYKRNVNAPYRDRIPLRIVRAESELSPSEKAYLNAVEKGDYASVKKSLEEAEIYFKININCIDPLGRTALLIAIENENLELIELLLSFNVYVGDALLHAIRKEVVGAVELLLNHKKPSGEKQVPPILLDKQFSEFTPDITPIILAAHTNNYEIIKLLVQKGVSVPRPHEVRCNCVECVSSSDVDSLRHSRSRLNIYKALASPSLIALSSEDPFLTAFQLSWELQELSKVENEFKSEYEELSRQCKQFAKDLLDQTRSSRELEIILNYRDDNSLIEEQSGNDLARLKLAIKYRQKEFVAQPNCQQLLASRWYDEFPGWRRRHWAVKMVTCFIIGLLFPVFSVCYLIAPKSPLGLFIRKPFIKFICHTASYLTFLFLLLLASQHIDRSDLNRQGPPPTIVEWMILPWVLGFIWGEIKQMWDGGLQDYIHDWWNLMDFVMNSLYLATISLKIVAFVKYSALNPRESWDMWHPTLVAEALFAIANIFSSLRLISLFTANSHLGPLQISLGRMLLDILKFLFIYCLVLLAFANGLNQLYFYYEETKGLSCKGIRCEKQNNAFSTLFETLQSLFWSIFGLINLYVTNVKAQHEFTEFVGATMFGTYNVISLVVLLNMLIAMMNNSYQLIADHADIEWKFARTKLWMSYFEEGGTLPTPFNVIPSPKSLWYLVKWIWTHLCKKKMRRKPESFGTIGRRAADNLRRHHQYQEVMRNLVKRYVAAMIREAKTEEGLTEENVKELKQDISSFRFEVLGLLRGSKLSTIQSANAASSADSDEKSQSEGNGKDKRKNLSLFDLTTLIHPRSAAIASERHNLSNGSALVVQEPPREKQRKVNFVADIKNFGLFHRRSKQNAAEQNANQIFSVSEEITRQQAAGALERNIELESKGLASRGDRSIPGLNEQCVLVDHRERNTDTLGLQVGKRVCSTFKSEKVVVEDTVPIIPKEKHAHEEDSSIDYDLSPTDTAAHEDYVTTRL

[5] = molecular target: T3, Short transient receptor potential channel 6 (Homo sapiens, UniProt Q9Y210); assay: Inhibition of human TRPC6 expressed in HEK293 cells assessed as reduction in OAG-induced calcium influx preincubated for 2 mins followed by OAG stimulation by fluo-4/AM dye based FLIPR assay; format: cell-based
T3 sequence (Q9Y210 whole entry): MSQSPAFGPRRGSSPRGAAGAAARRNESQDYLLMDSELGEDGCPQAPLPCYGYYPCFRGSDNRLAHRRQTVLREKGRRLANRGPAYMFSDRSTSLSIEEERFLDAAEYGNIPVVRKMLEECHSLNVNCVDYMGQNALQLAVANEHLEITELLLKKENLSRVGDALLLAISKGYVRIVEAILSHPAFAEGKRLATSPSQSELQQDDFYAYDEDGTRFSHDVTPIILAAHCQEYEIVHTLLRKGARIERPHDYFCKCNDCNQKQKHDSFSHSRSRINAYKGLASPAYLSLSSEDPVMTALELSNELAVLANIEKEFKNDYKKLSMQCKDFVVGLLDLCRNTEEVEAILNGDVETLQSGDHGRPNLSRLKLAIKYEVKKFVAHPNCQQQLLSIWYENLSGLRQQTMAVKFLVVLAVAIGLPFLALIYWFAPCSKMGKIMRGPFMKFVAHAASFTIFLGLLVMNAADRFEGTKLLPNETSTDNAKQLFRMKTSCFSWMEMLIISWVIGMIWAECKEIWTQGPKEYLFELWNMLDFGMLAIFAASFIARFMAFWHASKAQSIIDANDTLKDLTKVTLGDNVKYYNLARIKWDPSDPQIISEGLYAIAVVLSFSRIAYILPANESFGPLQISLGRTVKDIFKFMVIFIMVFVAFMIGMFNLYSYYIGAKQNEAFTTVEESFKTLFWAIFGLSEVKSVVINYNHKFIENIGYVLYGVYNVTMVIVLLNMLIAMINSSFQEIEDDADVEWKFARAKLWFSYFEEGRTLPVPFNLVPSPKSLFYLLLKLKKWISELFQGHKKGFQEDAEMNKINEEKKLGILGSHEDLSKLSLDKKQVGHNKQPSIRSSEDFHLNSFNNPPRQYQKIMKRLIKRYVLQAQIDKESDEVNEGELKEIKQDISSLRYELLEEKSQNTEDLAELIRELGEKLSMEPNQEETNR

[6] = Drug concentration in C57BL/6 mouse brain at 10 mg/kg, ip after 2 hrs by UPLC method; format: ADME, organism-based; conditions: read-out: Drug uptake
[7] = Drug concentration in C57BL/6 mouse serum at 10 mg/kg, ip after 2 hrs by UPLC method; format: ADME, organism-based; conditions: read-out: Drug uptake
[8] = molecular target: T1, Short transient receptor potential channel 6; assay: Inhibition of mouse TRPC6 expressed in HEK293 cells co-expressing M5 receptor assessed as reduction in carbachol-induced membrane potential by FMP-2 dye based assay; format: cell-based
[9] = molecular target: T4, Short transient receptor potential channel 3 (Homo sapiens, UniProt Q13507); assay: Inhibition of human TRPC3 expressed in HEK293 cells assessed as reduction in carbachol-induced membrane potential by FMP-2 dye based assay; format: cell-based
T4 sequence (Q13507 whole entry): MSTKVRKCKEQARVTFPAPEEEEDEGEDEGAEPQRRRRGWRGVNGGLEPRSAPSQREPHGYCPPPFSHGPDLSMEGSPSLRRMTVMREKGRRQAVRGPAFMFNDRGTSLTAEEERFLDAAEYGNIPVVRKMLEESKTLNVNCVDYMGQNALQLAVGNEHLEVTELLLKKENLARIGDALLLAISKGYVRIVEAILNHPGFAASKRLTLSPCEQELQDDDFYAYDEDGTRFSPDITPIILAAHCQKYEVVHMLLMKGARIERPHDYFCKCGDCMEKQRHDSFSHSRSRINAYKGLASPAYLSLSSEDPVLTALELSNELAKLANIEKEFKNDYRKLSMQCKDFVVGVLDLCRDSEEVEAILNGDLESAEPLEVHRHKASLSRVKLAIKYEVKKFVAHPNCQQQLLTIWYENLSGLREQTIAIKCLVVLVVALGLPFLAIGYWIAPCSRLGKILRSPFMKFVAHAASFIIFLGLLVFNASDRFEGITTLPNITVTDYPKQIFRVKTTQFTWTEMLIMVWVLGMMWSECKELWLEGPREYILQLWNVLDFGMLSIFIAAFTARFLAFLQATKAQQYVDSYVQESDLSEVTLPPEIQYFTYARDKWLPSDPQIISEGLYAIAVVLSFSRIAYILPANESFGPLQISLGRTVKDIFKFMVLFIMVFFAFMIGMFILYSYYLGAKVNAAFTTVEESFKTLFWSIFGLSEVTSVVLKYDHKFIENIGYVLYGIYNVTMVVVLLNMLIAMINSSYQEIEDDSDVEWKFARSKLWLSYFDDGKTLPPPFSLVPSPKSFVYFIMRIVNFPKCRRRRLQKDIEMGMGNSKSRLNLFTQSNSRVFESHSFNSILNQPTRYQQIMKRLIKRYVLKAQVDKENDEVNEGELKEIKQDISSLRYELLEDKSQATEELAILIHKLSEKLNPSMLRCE

[10] = Inhibition of human TRPC1/mouse TRPC4 beta expressed in HEK293 cells co-expressing M2 receptor assessed as reduction in […] membrane potential by FMP-2 dye based assay; format: cell-based
[11] = Drug concentration in C57BL/6 mouse cerebrospinal fluid at 10 mg/kg, ip after 2 hrs by UPLC method; format: ADME, organism-based; conditions: read-out: Drug uptake
[12] = molecular target: TRPC6; assay: Inhibition of TRPC6 expressed in HEK293 cells coexpressing M5 receptor assessed as reduction in TRPC6-mediated calcium influx by fluorescence method
[13] = molecular target: TRPC4/TRPC1 (Homo sapiens, UniProt P48995+Q9UBN4); assay: Antagonist activity at TRPC4/TRPC1 in human A498 cells assessed as reduction in englerin A-induced calcium entry preincubated for 30 mins followed by englerin A addition by fluorescence method; format: cell-based
TRPC4/TRPC1, sequence (Q9UBN4 whole entry): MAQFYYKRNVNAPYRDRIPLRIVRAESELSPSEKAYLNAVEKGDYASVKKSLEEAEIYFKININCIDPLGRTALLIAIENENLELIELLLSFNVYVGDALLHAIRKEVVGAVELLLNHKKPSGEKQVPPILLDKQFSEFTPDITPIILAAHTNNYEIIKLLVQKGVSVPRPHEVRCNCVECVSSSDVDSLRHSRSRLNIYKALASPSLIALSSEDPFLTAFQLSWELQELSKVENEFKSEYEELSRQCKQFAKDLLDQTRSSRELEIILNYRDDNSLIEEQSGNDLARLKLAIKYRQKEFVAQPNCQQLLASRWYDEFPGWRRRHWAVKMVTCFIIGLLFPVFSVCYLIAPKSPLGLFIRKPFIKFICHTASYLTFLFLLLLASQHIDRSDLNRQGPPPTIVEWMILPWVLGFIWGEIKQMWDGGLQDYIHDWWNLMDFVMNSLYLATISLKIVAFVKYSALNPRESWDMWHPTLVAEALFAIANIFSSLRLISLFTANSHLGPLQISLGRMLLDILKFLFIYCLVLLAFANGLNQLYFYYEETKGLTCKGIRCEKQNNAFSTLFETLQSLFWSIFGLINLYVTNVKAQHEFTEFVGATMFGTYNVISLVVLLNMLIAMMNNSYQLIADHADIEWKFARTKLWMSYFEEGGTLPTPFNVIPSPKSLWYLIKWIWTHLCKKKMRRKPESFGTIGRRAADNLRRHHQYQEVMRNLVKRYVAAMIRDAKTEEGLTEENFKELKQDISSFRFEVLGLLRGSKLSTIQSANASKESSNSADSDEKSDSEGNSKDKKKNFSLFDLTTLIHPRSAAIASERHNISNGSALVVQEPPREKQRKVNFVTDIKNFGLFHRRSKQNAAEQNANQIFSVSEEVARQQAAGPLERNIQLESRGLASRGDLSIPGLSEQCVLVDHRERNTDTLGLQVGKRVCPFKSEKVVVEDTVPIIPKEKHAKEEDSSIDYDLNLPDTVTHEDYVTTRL
TRPC4/TRPC1, sequence (P48995 whole entry): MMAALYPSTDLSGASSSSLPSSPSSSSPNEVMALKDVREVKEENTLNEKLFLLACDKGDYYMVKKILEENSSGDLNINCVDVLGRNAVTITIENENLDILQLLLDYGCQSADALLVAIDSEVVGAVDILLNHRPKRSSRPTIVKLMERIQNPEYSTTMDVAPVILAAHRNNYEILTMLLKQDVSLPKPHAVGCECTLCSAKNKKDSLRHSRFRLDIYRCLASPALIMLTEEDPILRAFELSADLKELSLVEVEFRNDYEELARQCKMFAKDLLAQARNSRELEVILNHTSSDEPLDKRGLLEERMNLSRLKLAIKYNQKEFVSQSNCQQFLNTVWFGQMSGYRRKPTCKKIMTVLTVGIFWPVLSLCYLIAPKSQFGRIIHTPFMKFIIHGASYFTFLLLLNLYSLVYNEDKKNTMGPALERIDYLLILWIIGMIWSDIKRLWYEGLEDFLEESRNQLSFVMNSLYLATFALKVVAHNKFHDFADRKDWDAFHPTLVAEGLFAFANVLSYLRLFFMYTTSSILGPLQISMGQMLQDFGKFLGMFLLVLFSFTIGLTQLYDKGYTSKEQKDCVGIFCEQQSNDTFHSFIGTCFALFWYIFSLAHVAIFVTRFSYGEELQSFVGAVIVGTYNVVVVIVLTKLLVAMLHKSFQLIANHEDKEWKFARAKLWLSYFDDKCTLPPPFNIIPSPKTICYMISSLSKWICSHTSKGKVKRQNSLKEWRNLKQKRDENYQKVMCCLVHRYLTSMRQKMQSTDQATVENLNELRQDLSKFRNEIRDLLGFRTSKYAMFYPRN

[14] = molecular target: T4, Short transient receptor potential channel 3; assay: Inhibition of YFP-tagged TRPC3 (unknown origin) expressed in HEK293 cells assessed as reduction carbhocol-induced receptor operated Calcium influx after 5 mins by fura-2-AM dye based assay; format: cell-based
[15] = molecular target: ORAI1/STIM1 (Rattus norvegicus, UniProt P84903+Q5M848); assay: Inhibition of ORAI/STIM1 in thapsigargin treated rat RBL2H3 cells assessed as reduction in store-operated calcium entry after 5 mins by fura-2-AM dye based assay; format: cell-based
ORAI1/STIM1, sequence (P84903 whole entry): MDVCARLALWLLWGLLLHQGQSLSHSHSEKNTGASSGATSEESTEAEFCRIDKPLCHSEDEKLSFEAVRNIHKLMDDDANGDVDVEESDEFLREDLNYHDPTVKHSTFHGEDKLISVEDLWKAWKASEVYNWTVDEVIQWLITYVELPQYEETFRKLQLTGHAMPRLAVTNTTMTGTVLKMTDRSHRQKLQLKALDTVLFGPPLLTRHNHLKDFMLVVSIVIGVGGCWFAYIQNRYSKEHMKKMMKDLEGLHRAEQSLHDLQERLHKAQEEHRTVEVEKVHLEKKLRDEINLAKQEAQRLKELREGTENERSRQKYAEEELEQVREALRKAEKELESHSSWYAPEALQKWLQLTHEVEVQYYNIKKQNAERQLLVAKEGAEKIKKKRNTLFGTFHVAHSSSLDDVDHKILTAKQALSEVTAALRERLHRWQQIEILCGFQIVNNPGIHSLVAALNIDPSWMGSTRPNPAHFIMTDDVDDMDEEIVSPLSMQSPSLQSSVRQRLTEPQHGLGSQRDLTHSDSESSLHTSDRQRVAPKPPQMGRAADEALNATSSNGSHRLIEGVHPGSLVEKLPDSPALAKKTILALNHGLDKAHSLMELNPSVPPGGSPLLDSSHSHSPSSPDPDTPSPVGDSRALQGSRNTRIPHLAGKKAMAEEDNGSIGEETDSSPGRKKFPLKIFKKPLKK
ORAI1/STIM1, sequence (Q5M848 whole entry): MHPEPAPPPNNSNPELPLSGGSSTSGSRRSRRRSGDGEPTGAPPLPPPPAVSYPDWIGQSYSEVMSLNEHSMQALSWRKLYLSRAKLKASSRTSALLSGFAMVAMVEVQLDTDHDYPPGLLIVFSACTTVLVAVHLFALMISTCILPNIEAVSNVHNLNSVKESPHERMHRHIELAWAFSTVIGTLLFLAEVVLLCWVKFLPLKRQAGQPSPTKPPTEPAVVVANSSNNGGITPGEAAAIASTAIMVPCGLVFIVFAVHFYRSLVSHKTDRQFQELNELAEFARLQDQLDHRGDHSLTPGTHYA

[16] = Selectivity ratio of ORAI/STIM1 in thapsigargin treated rat RBL2H3 cells to YFP-tagged TRPC3 (unknown origin) expressed in HEK293 cells; format: cell-based

Cc1cc(N2CCCCC2)nc2ccccc12
IC50 [1]: 17.9 µM
Ratio IC50 [2]: 19
IC50 [3]: 0.84 µM
IC50 [4]: 0.96 µM

C=C[C@@](C)(CC[C@H]1C(=C)C[C@H](OC(N)=O)[C@H]2C(C)(C)CCC[C@]12C)OC(C)=O
IC50 [5]: 0.25 µM

CCCCNc1nc2ccccc2[nH]1
concentration at 2 h [6]: 1100 ng/g
concentration at 2 h [7]: 2260 ng/mL
IC50 [8]: 59.6 µM
IC50 [9]: 48.6 µM
IC50 [10]: 8.3 µM
concentration at 2 h [11]: 335 ng/mL

Cc1nn2c(O)cc(C3CCN(C(=O)OC(C)(C)C)CC3)nc2c1-c1ccc(F)cc1
IC50 [12]: 8.4 µM

CC(C)[C@]12C[C@@H](OCCO)[C@](C)(O1)[C@@H]1CC[C@@H](C)[C@H]1[C@@H]2OC(=O)/C=C/c1ccccc1
IC50 [13]: 0.062 µM

O=C(Nc1ccc(-n2nc(C(F)(F)F)cc2C(F)(F)F)cc1)c1ccncc1F
IC50 [14]: 18.5 µM
IC50 [15]: 0.49 µM
Ratio IC50 [16]: 37

C=C[C@](C)(O)CC[C@H]1C(=C)C[C@H](OC(N)=O)[C@H]2C(C)(C)CCC[C@]12C
IC50 [5]: 0.17 µM
